# Test results as given in paper PMC9865020, “Identification of Novel Small Molecule Ligands for JAK2 Pseudokinase Domain” (Pharmaceuticals, 2023).
# Like-named read-outs stand apart in the source and are kept apart here.
# What was measured:
# [1] = biological target: JAK2 JH1 D976N (Homo sapiens, UniProt O60674, D976N); test: Fluorescence polarization binding assay, Bodipy FL-ATP tracer; settings: for inhibition at 100 µM: read-out: inhibition-% of tracer binding to JAK2 JH1
# [2] = biological target: T1, JAK2 JH2 wild-type (Homo sapiens, UniProt O60674); test: as above; settings: for inhibition at 100 µM: 100 µM analog concentration; for inhibition at 100 µM / IC50: FP, Bodipy FL-ATP tracer; for IC50: average ± standard deviation, lower detection limit 3.5 µM, read-out: IC50 of tracer binding to JAK2 JH2 wt
# T1 construct: Human JAK2 JH2 (503-827); hexa histidine-tag (C); made in house; host or cells: High Five or Sf9 insect cells
# T1 sequence (O60674 503-827): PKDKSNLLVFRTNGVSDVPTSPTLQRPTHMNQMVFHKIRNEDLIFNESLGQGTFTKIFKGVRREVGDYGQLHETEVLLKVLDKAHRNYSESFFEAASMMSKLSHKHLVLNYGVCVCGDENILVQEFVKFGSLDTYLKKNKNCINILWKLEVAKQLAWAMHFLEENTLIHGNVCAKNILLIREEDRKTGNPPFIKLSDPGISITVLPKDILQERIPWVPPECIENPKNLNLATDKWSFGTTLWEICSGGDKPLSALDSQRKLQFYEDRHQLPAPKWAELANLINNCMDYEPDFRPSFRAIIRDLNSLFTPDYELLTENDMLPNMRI
# [3] = biological target: JAK2 JH2 V617F (Homo sapiens, UniProt O60674, V617F); test: as above; set-up: Hyperactive mutation V617F in the JAK2 regulatory pseudokinase domain (JH2); His tag (C); made in house; host or cells: High Five or Sf9 insect cells; settings: for IC50: FP, Bodipy FL-ATP tracer, lower detection limit of assay 3.5 µM, read-out: IC50 value for binding against JAK2 JH2 V617F
# Chain of JAK2 JH2 V617F (O60674 545-809 V617F limits assumed): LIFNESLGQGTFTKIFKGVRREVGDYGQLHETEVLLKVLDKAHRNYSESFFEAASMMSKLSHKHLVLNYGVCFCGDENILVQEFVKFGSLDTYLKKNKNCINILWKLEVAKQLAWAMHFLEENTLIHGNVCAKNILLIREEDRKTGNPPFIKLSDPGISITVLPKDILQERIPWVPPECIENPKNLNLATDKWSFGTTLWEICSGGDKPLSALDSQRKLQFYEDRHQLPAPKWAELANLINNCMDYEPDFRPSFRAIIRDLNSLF
# [4] = test system: SET-2 cells; test: alamarBlue cell viability assay; type: cell-based; settings: Homo sapiens, read-out: Cell Viability IC50 SET-2
# [5] = test system: HEL cells; test: alamarBlue cell viability assay; type: cell-based; settings: Homo sapiens, 48 h, read-out: Cell Viability IC50 HEL
# [6] = biological target: JAK1 JH2 (Homo sapiens, UniProt P23458); test: More sensitive FP binding assay, Bodipy FL-labeled JNJ-7706621 tracer
# Chain of JAK1 JH2 (P23458 553-836): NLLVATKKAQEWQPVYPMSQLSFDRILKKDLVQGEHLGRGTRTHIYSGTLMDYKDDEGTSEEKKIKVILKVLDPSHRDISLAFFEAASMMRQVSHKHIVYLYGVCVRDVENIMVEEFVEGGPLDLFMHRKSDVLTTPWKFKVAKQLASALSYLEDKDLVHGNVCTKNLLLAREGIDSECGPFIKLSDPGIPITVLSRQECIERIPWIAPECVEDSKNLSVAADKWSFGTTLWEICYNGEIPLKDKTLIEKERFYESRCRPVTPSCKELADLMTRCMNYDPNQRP
# [7] = biological target: JAK1 JH1 D1003N (Homo sapiens, UniProt P23458, D1003N); test: as above
# Chain of JAK1 JH1 D1003N (P23458 866-1154 D1003N): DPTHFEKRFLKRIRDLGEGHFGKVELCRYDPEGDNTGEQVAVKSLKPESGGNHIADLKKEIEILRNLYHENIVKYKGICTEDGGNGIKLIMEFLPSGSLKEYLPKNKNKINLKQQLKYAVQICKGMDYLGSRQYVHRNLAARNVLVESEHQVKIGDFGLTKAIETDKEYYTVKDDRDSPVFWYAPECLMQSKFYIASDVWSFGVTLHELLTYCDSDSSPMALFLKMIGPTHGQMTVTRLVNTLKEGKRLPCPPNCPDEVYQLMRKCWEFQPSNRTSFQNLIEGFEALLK
# [8] = test system: Ba/F3-hJAK2 wildtype cells; test: alamarBlue cell viability assay; type: cell-based, murine; settings: Mus musculus, 48 h, n=3, read-out: Cell viability IC50 Ba/F3-hJAK2 wt
# [9] = test system: Ba/F3 hJAK2 V617F cells; test: alamarBlue cell viability assay; type: cell-based, murine; settings: Mus musculus, BaF3, 48 h, n=3
# Chain of JAK2 JH1 D976N (O60674 836-1132 D976N): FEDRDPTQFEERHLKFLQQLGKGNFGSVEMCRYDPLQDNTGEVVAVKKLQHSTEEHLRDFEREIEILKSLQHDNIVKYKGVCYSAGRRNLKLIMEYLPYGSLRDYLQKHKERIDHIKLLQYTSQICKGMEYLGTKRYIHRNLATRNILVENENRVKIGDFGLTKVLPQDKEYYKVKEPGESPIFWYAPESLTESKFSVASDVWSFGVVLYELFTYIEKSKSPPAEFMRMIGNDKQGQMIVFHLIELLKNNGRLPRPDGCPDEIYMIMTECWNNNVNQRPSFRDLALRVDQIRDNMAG
Compound,inhibition at 100 µM [1],inhibition at 100 µM [2],also measured
COc1ccc(-c2c(C(F)(F)F)nn3c(=O)cc(-c4cccc([N+](=O)[O-])c4)[nH]c23)cc1 [Compound 13],15%,85%,IC50 [2]: 55 ± 5 µM; IC50 [3]: 59 µM
Nc1nc(Nc2ccc(Cl)cc2)n[nH]1 [Compound 20],19%,55%,–
COC(=O)c1ccc(Nc2[nH]cnc3ncnc2-3)cc1 [Compound 8],–,–,IC50 [2]: 100 ± 22 µM; IC50 [3]: 123 µM
CN(Cc1nc(N)nc(Nc2ccccc2)n1)Cc1ccc(Br)s1 [Compound 5],5%,60%,IC50 [2]: 95 ± 12 µM; IC50 [3]: 91 µM
COc1cc(/C=N/Nc2ncnc3[nH]cnc23)cc(Br)c1O [Compound 10],–,–,IC50 [2]: 82 ± 28 µM; IC50 [3]: 155 µM
"Cc1cc(Nc2cc(CN3CCOCC3)c3nc(C)c(Cc4ccc(Cl)cc4F)n3n2)n[nH]1 [Compound 14, Gandotinib, reference compound]",–,–,IC50 [2]: 213 ± 63 µM; IC50 [3]: 142 µM
COc1ccc(Nc2nc(N)n[nH]2)cc1 [Compound 17],21%,40%,–
Cc1ccc(Nc2nc(N)nc(CN(C)Cc3ccc(Br)s3)n2)cc1 [Compound 23],0%,66%,–
Fc1cccc(/C=N/Nc2[nH]cnc3ncnc2-3)c1 [Compound 11],–,–,IC50 [2]: 192 ± 41 µM; IC50 [3]: 188 µM
Nc1nc(Nc2ccc3c(c2)CC[C@@H](N2CCCC2)CC3)nn1-c1cc2c(nn1)-c1ccccc1CCC2 [Compound 16],86%,79%,–
CSc1ccc(CN(C)Cc2nc(N)nc(Nc3ccccc3)n2)cc1 [Compound 25],7%,62%,–
Nc1nc(Nc2ccccc2)n[nH]1 [Compound 21],27%,45%,–
c1ccc(COc2ccc(Nc3ncnc4nc[nH]c34)cc2)cc1 [Compound 9],–,–,IC50 [2]: 774 ± 64 µM; IC50 [3]: 255 µM
Bodipy FL-ATP [reference compound],–,–,"Kd ([1]; read-out: protein-tracer binding affinity, JAK2 JH1, in the FP assay conditions): 5 µM; Kd ([2]; in the FP assay conditions, read-out: protein-tracer binding affinity, JAK2 JH2 WT): 9 µM; Kd ([3]; in the FP assay conditions, read-out: protein-tracer binding affinity, JAK2 JH2 V617F): 7 µM"
"O=C(Nc1c[nH]nc1-c1nc2ccc(CN3CCOCC3)cc2[nH]1)NC1CC1 [Compound 2, AT9283, reference compound]",–,–,"IC50 ([4]; SET-2, 48 h): 0.54 µM; IC50 ([5]; HEL): 1.3 µM; IC50 [6]: 0.11 µM; IC50 [7]: 0.06 µM"
"CCN(CC)C(=O)c1ccc(Nc2nc(OCC3CCCCC3)c3nc[nH]c3n2)cc1 [Compound 6, Cdk2 inhibitor IV, reference compound]",–,–,IC50 [1]: ≤ 3.5 µM; IC50 [2]: ≤ 3.5 µM; IC50 [3]: ≤ 3.5 µM
COc1ccc(CNc2n[nH]c(N)n2)cc1 [Compound 22],10%,1%,–
"Nc1nc(Nc2ccc(S(N)(=O)=O)cc2)nn1C(=S)Nc1c(F)cccc1F [Compound 3, Cdk1/2 inhibitor III, reference compound]",–,–,IC50 [1]: ≤ 3.5 µM; IC50 [2]: ≤ 3.5 µM; IC50 [3]: ≤ 3.5 µM
"c1nc2nc(Nc3ccc(N4CCOCC4)cc3)nc(NC3CCCCC3)c2[nH]1 [Compound 7, Reversine, reference compound]",–,–,"IC50 ([4]; SET-2 (JAK2 V617F heterozygous), 48 h, alamarBlue, upper detection limit 40 µM): 4 µM; IC50 ([5]; HEL (JAK2 V617F homozygous), alamarBlue, upper detection limit 40 µM): 9.3 µM; IC50 [8]: 0.38 µM; IC50 [6]: 0.15 µM; IC50 [7]: 0.35 µM; IC50 [9]: 0.48 µM"
Oc1cccc(/C=N/Nc2ncnc3[nH]cnc23)c1 [Compound 12],–,–,IC50 [2]: 164 ± 11 µM; IC50 [3]: 263 µM

# More lines, main results first:
inhibition at 100 µM [1],inhibition at 100 µM [2],Compound,also measured
10%,71%,COc1ccc(-c2c(C(F)(F)F)nn3c(=O)cc(-c4ccccc4)[nH]c23)cc1 [Compound 35],–
27%,18%,CC(C)(C)c1cc(=O)n2nc(C(F)(F)F)c(-c3ccccc3)c2[nH]1 [Compound 42],–
34%,6%,Cc1cc(=O)n2[nH]c(C(F)(F)F)c(-c3ccccc3)c2n1 [Compound 41],–
40%,30%,Cc1ccc(Nc2nc(N)nc(-c3ccccc3)n2)cc1 [Compound 33],–
18%,56%,Nc1nc(CSCc2ccc(F)cc2)nc(Nc2ccccc2)n1 [Compound 32],–
3%,31%,Nc1nc(COC(=O)c2ccoc2)nc(Nc2ccccc2)n1 [Compound 29],–
13%,0%,COC(=O)Cc1cc(=O)n2nc(C(F)(F)F)c(-c3ccc(OC)cc3)c2[nH]1 [Compound 39],–
0%,62%,Nc1nc(CN2CCCC2c2cccs2)nc(Nc2ccccc2)n1 (centres unmarked) [Compound 27],–
0%,56%,COc1ccc(CN(C)Cc2nc(N)nc(Nc3ccccc3)n2)cc1F [Compound 26],–
0%,0%,COc1ccc(-c2c(Cc3ccccc3)[nH]n3c(=O)cc(-c4ccc([N+](=O)[O-])cc4)nc23)cc1 [Compound 38],–
1%,1%,COc1ccc(-c2c(C)[nH]n3c(=O)cc(-c4ccc([N+](=O)[O-])cc4)nc23)cc1 [Compound 37],–
8%,8%,CCCc1cc(=O)n2nc(C(F)(F)F)c(-c3ccccc3)c2[nH]1 [Compound 40],–
4%,69%,CN(Cc1nc(N)nc(Nc2ccccc2)n1)Cc1cccc(Cl)c1Cl [Compound 28],–
11%,37%,Nc1nc(CSCCn2cccn2)nc(Nc2ccccc2)n1 [Compound 31],–
31%,57%,CC(Sc1ccccc1F)c1nc(N)nc(Nc2ccccc2)n1 (centres unmarked) [Compound 30],–
